According to patent US7332479B2, “Extracellular NAD+ and cADPR as potent anti-inflammatory agents” (University of Pittsburgh - of the Commonwealth System of …, priority 2003, dated 2008):

Tests used:
[1] = tested on: occludin and ZO-1 in Caco-2 cells; assay: ZO-1 and occludin in NP-40-insoluble fraction, immunoprecipitation and Western blot, Caco-2 cells exposed to cytomix; format: cell-based, human
[2] = tested on: Caco-2 human enterocyte-like cells; assay: Paracellular permeability of Caco-2 monolayers, apical-to-basolateral clearance of FD4, cytomix; format: cell-based
Experimental: Cell Culture. Caco-2 human enterocyte-like cells were routinely maintained at 37° C. in DMEM with 10% FBS, as described by Han et al. ^9 All cells were fed by changing the cell culture medium twice per week. For experiments, cells were grown on Transwell inserts (0.4 μm pore size; Corning Costar Corp., Cambridge, Mass.) and used 14-17 days post-confluence. […] Caco-2 monolayers growing on permeable supports were left untreated or exposed to cytomix for 24 or 48 h in the absence or presence of graded concentrations of NAD^+ or adenosine. Paracellular permeability was determined by measuring the apical-to-basolateral flux of FD4. Epithelial permeability was unaffected when monolayers were incubated with NAD^+ alone. Exposing Caco-2 cells to cytomix increased the clearance of FD4 across the monolayers (FIG. 1A). Addition of NAD^+ ameliorated cytomix-induced epithelial hyperpermeability in a concentration-dependent manner. […] NAD^+ is structurally related to a nucleoside, adenosine, that is known to exert anti-inflammatory effects by binding to certain purinergic receptors;^24 accordingly, the possibility that activation of a receptor for adenosine was responsible for the amelioration of cytokine-induced hyperpermeability by NAD^+ was considered. To investigate this idea, Caco-2 monolayers were exposed to cytomix in the absence or presence of 10 μmol/L adenosine (FIG. 1A).

[3] = tested on: Caco-2 cells; assay: Immunofluorescence microscopy of ZO-1 and occludin localization in Caco-2 cells exposed to cytomix; format: cell-based, human; details: cytomix 48 h, 10 μmol/L added at 0 and 24 h
Experimental: Immunofluorescence. All procedures were performed at 0-4° C. as described.^9 Caco-2 cells growing on 24 well clear Transwell inserts were fixed and stained with a mouse anti-ZO-1 monoclonal antibody (mAb; BD Translabs, Franklin Lakes, N.J.) and rabbit an anti-occludin polyclonal antibody diluted 1:100. The secondary antibodies were 5 μg/mL FITC-conjugated affinity-purified donkey anti-mouse IgG and 15 μg/mL TRITC-conjugated affinity-purified goat anti-rabbit IgG (Jackson ImmunoResearch Laboratories).
Immunofluorescence microscopy was used to assess the structure of TJs in Caco-2 cells grown on Transwells. The cells were either left untreated (FIG. 3; Panel CON) or exposed to cytomix for 48 h in the absence (Panel C48) or presence (Panel N10) of extracellular NAD^+ (10 μmol/L added at 0 and 24 h). The cells were permeabilized, fixed, and stained using FITC- and TRITC-conjugated antibodies directed against ZO-1 and occludin, respectively. In control confluent Caco-2 monolayers, these proteins both were predominantly localized to regions near cell-cell boundaries. Staining was even and continuous. Following treatment with cytomix, dispersed lesions appeared throughout the monolayer, in which immunostaining for ZO-1 at cell boundaries became faint, diffuse, and discontinuous. Exposure to cytomix also was associated with “ruffling” of ZO-1 and occludin immunostaining. […]

[4] = tested on: NO. production by Caco-2 cells; assay: NO. production (NO2- and NO3- in culture supernatants) by Caco-2 cells exposed to cytomix; format: cell-based, human
Experimental: (§1) Measurement of NO. production and iNOS gene expression. NO. production^21 was measured and RT-PCR ^22 for iNOS mRNA and 18S RNA were performed as described. The gels were captured using an imaging workstation (NucleoVision), and quantified with GelExpert™ 3.5. Relative expression of iNOS is reported after normalizing for 18S loading in FIG. 4B.
(§2) Accordingly, it was determined whether NAD^+ decreased the production of NO. (as assessed by measuring NO2^− and NO3^− in culture supernatants) by Caco-2 cells exposed to cytomix (similar study using RAW monocyte-like cells is not shown). […] Again, there was a biphasic response to NAD^+ treatment; provided maximal inhibition and higher doses inhibited less well. Thus, another inflammatory response, namely the induction of iNOS gene expression and the concomitant production of NO., is blocked by extracellular NAD^+ in both myeloid and epithelial cells.

[5] = tested on: inducible nitric oxide synthase (iNOS) mRNA; assay: iNOS mRNA expression by RT-PCR in Caco-2 cells exposed to cytomix; format: cell-based, human; details: biphasic response
Experimental: as §1, §2

[6] = tested on: mice challenged with a lethal dose of Escherichia coli O111:B4 LPS; assay: LPS-induced mortality in mice; format: in vivo; details: LPS 17 mg/kg; intravenous and intraperitoneal, 1 mg/kg pre-treatment then 1 mg/kg every 6 h for five more doses
[7] = tested on: mouse ileal mucosa; assay: Ileal mucosal permeability to FD4 (ex vivo everted gut sac) in LPS-injected mice; details: LPS 17 mg/kg IP, two 132 mg/kg doses (IV then IP 12 h later), ileum at 18 h
Experimental: Animals. This research complied with regulations regarding animal care as published by the National Institutes of Health and was approved by the Institutional Animal Use and Care Committee of the University of Pittsburgh. Male 7-8 week old C57Bl/6J mice weighing 20-25 g were from Jackson Laboratories (Bar Harbor, Me.). To induce a systemic inflammatory response, mice were injected intraperitoneally (IP) with Escherichia coli (strain O111:B4) LPS (17 mg/kg) dissolved in 1.0 ml of PBS. Control animals were injected with a similar volume of PBS. Some mice were treated with an intravenous (IV) injection (100 μL) of either PBS or 132 mg/kg NAD^+ in PBS given 5 min before LPS or PBS injection, and this injection was repeated IP 12 h later. Groups of mice were anesthetized with 60-90 mg/kg sodium pentobarbital 18 h after the first injection with PBS or LPS. Segments of ileum were harvested to assess mucosal permeability to FD4 using an ex vivo everted gut sac method as previously described.^20
In the setting of systemic inflammation, circulating blood monocytes often encounter lipopolysaccharide (LPS), a potent inflammatory molecule derived from the outer surface of Gram-negative bacteria. […]

[8] = tested on: NF-κB; assay: NF-κB DNA binding by electrophoretic mobility shift assay, Caco-2 cells exposed to cytomix; format: cell-based, human
Experimental: Electrophoretic mobility shift assay (EMSA). Nuclear extracts were prepared and analyzed as described.^23 However, 38.3 μL of 10% NP-40 was used to lyse the cells, the nuclei were isolated by centrifugation at 310 g for 3 min, and the nuclear pellets were resuspended in 80 μL of Buffer II.
iNOS induction is dependent, in part, on activation of the transcription factor NF-κB, a transcription factor that is required for a variety of monocyte inflammatory responses, e.g., to LPS. Therefore, we tested the ability of NAD^+ to inhibit DNA binding by NF-κB in Caco-2 cells exposed to cytomix. […] NAD^+ alone had no effect on the nuclear levels of NF-κB.

[9] = tested on: NF-κB; assay: Nuclear NF-κB levels by electrophoretic mobility shift assay, LPS-stimulated RAW 264.7 cells; format: cell-based, mouse; details: 10 ng/ml LPS, 15 min
Experimental: Additional studies were performed to show the potent anti-inflammatory capacity of extracellular NAD^+. RAW 264.7 cells in tissue culture dishes were stimulated with LPS prepared from Escherichia coli strain 011:B4, and the activation of NF-κB was measured. Some cells were exposed to 10 ng/ml LPS in the presence of 1-100 μM NAD. Nuclear proteins were extracted from the cells 15 min after exposure to the compounds, and NF-κB levels were determined using the electrophoretic mobility shift assay.
Thus, very low doses of extracellular NAD^+ can effectively block the activation of NF-κB, an important transcription factor mobilized during an inflammatory response.

[10] = tested on: TNF-α; assay: LPS-induced TNF-α release from RAW cells, ELISA; format: cell-based, mouse; details: 1 μM
Experimental: Whether NAD^+ could prevent the production of tumor necrosis factor α (TNF-α), a potent proinflammatory cytokine produced by activated monocytes and macrophages, was tested. Supernatants were collected from RAW cells treated with LPS in the absence or presence of NAD^+. TNF-α levels were quantitated by ELISA.

Nc1ncnc2c1ncn2[C@@H]1O[C@H](COP(=O)(O)OP(=O)(O)OC[C@H]2OC(O)[C@H](O)[C@@H]2O)[C@@H](O)[C@H]1O (some centres unmarked) [ADP-ribose]
expression of occludin ([1]; cytomix, co-incubation with 10 or 100 μmol/L): failed to preserve occludin expression

Nc1ncnc2c1ncn2[C@@H]1O[C@H](CO)[C@@H](O)[C@H]1O [Adenosine, adenosine, reference compound]
decrease in NP-40-insoluble occludin or ZO-1 ([1]; cytomix 48 h with 10 μM): failed to prevent | induction of hyperpermeability by cytomix ([2]; 10 μmol/L): no effect

NC(=O)c1ccc[n+]([C@@H]2O[C@H](COP(=O)([O-])OP(=O)(O)OC[C@H]3O[C@@H](n4cnc5c(N)ncnc54)[C@H](O)[C@@H]3O)[C@@H](O)[C@H]2O)c1 [NAD^+, nicotinamide adenine dinucleotide]
staining of ZO-1 and occludin at cell-cell boundaries [3]: continuous staining | concentration giving maximal inhibition of NO. production ([4]; cytomix): 100 µmol/L | inhibition of NO. production ([4]; cytomix, 1000 μmol/L compared with 100 μmol/L): inhibition was decreased | cytomix-increased production of NO. ([4]; graded concentrations): inhibited in a concentration-dependent manner | occludin and ZO-1 in NP-40-insoluble complexes ([1]; cytomix 48 h with 10 or 100 μmol/L): normal levels of these proteins were present | cytomix-increased expression of iNOS mRNA [5]: blocked this effect | mortality [6]: completely prevented mortality | increase in mucosal permeability to FD4 induced by LPS [7]: significantly ameliorated | cytomix-induced NF-κB activation ([8]; 1 μmol/L, nuclear extracts 4 h): no effect | nuclear levels of NF-κB ([8]; NAD+ alone, no cytomix): no effect | NF-κB DNA binding ([8]; cytomix, 10 or 100 μmol/L, nuclear extracts 4 h): clearly decreased | protection against cytomix-induced hyperpermeability ([2]; 10 and 100 μmol/L): statistically significant | cytomix-induced epithelial hyperpermeability ([2]; cytomix 24 or 48 h, graded concentrations, concentration-dependent): ameliorated | Epithelial permeability (FD4 flux) ([2]; monolayers incubated with NAD+ alone, no cytomix): unaffected | nuclear localization of NF-κB ([9]; 1 μM): dramatically decreased | nuclear NF-κB levels ([9]; 100 μM): near baseline levels | LPS-induced release of TNF-α [10]: partially blocked
